Test results taken from a melting point compilation (Tetko et al.; mined from patent text by program, amines drawn as free bases though some values may be those of a salt).

Row | SMILES | melting point
1 | COCCCCCCCCCCCCCCSCCCO | 35 to 37 °C
2 | OCc1cccc2c(Cl)c3ccccc3cc12 | 138 to 140 °C
3 | NC(=O)c1cncc(N)c1 | 263 to 264 °C
4 | Cc1ccc(-c2nc(C)cc(Cl)n2)cc1 | 103 to 104 °C
5 | CCOC(=O)C(NC(C)=O)(C(=O)OCC)C1=Nc2ccc(Cl)cc2C(c2ccccc2F)=NC1 | 150 to 180 °C
6 | COc1cc(COc2nn(-c3ccccc3)cc2/C=C/C(=O)O)ccc1OCc1nc(-c2ccccc2)oc1C | 188 to 189 °C
7 | O=c1[nH]c(=O)n(CCCN2CCC(OC(c3ccccc3)c3ccccc3)CC2)c2ccccc12 | 149 to 151 °C
8 | O=C1NCCC1Cc1ccc(Cl)nc1 (stereo unspecified) | 117 to 118 °C
9 | OC1(c2ccccn2)CCC2CCCC21 (stereo unspecified) | 66 to 66.5 °C
10 | Cc1ccc(C(NC2CCNCC2)(Oc2ccc(OCc3ccccc3)cc2)C(C)O)nc1 (stereo unspecified) | 123 to 125 °C
11 | CN(C)CCc1c(CC(C#N)(c2ccccc2)c2ccccc2)c2ccccc2n1C | 133 to 136 °C
12 | CCOCC(=Nc1ccc(Cl)cc1C(F)(F)F)n1ccnc1 | 49 to 52 °C
13 | Cc1ccc(C2=NC[C@@H](O)[C@H](c3ccccc3)O2)cc1 (racemic) | 168 °C
14 | Cc1nccn1C[Si](C)(C)Cc1ccc(F)cc1 | 60 to 62 °C
15 | NNC(=O)Cc1cccc(OCCN2CCC(Cc3ccccc3)CC2)c1 | 89 to 91 °C
16 | Nc1cccc(OCc2csc(-c3ccccc3)n2)c1 | 75 to 80 °C
17 | Nc1cccn2c(Cl)cnc12 | 126 to 127 °C
18 | C[C@@H](CO)Oc1ccc(-c2ccccc2)cc1 | 75 to 78 °C
19 | COc1ccc(CC(=O)Cc2ccc(OC)cc2)cc1 | 75 to 76 °C
20 | O=C(C=NO)Nc1ccc(F)c(F)c1 | 148 to 150 °C
21 | O=C(O)/C=C/C=C(c1cccc(F)c1)c1cccc(F)c1 | 142 to 143 °C
22 | Cc1ccc(-c2cc(-c3ccccc3)c(-c3ccccc3)s2)cc1 | 110 to 112 °C
23 | CC(C)(C)c1cc(C=Nn2ccnc2)cc(C(C)(C)C)c1O | 171 to 174 °C
24 | CSC(Nc1cccnc1)=C(C#N)C#N | 180 to 181 °C
25 | CCCCn1c(=O)c2cn(S(=O)(=O)c3ccc(OC(F)(F)F)cc3)nc2n(CCCC)c1=O | 135 to 137 °C

Row | SMILES | melting point
26 | Oc1ccc(C=C2c3cc(O)c(O)cc3-c3ccc(O)c(O)c32)cc1 | 228 to 230 °C
27 | O=C1NC(=O)C(Cc2ccc(OCc3nc4ncccc4[nH]3)cc2)S1 (stereo unspecified) | 247 to 248 °C
28 | COC(=O)C1Oc2ccc(C)cc2C(C)(c2ccccc2)O1 (stereo unspecified) | 100 °C
29 | CC(=O)c1ccc(OCc2ccccc2)c(OC/C=C/CN2CCC(c3noc4cc(F)ccc34)CC2)c1 | 124 to 125 °C
30 | O=c1ncc(Cl)cn1CSCc1ccccc1 | 186 °C
31 | COc1ccc(CC#N)cc1C(=O)NCc1ccc(C(F)(F)F)cc1 | 124 to 125 °C
32 | NC(=O)c1cn(-c2ccccn2)nc1-c1ccc([N+](=O)[O-])o1 | 250 °C
33 | CN(C)c1ccc2c(c1)C(=O)CC(c1ccc(OCc3ccccc3)cc1)=N2 | 283 to 285 °C
34 | Brc1ccc(N2CCN(c3ccncc3)CC2)nc1 | 176 to 180 °C
35 | CC(c1oc2ccccc2c(=O)c1-c1cccc(F)c1)n1nc(-c2csc(CO)c2)c2c(N)ncnc21 (stereo unspecified) | 154 to 156 °C
36 | Cn1c(-c2ccccc2)c2ccsc2nc1=O | 175 to 181 °C
37 | CON=C1Cc2ccccc2N(C(N)=O)c2ccccc21 | 158 to 159 °C
38 | CC(=O)NCC1CC(c2ccc(N3CCCC3)c(F)c2)=NO1 (stereo unspecified) | 141 to 143 °C
39 | O=c1c2c[nH]c3ccccc3n-2c(=O)n1-c1ccccc1 | 231 to 234 °C
40 | COC(=O)C1C(C)CC2C3CCC4CC(O)CCC4(C)C3C(=O)CC21C (stereo unspecified) | 173 to 174 °C
41 | Nc1nc2c(c(=O)[nH]1)CCc1ccccc1-2 | > 300 °C
42 | CC1(C)CC(n2cncc2C(=O)O)c2ccccc2O1 (stereo unspecified) | 246 °C
43 | CN1C[C@H](CN2CCN(C(c3ccccc3)c3ccccc3)CC2)C[C@@H]2c3cccc4[nH]c(Br)c(c34)C[C@H]21 | 255 °C
44 | Cc1ccc(-c2nc(C(F)(F)F)oc2-c2ccc(S(C)(=O)=O)cc2)cc1 | 141 to 142 °C
45 | O=C1c2ccccc2-c2c1c(Cl)nc1cc(O)ccc21 | > 300 °C
46 | CC1(C)C(=NOCc2ccccc2)C(c2ccccc2)=C1c1ccc(S(C)(=O)=O)cc1 | 119 to 121 °C
47 | OCc1ccc(-c2ccc(OC(F)(F)F)c(F)c2)cn1 | 51 to 53 °C
48 | COc1cccc2c1C13CCN(CC4CC4)C(C2)C1(O)CCC(=O)C3 (stereo unspecified) | 133 to 135 °C
49 | ON=Cc1ccccc1-c1ccc2c(c1C=NO)OCO2 | 227 to 229 °C
50 | Cc1coc(-c2ccccc2)c(-c2ccc(Cl)c(Cl)c2)c1=O | 104 °C

The next lines start with the values.

Row | melting point | SMILES
51 | 46 to 52 °C | CCC(CC)Nc1cc(COC(C)=O)c([N+](=O)[O-])cc1[N+](=O)[O-]
52 | 143 to 144 °C | CC(C)CC1(C(CCN2C(=O)c3ccc(F)cc3C2=O)C(=O)NO)CCN(CCc2ccccc2)C1=O (stereo unspecified)
53 | 242 to 245 °C | CN(C)S(=O)(=O)c1cc2cc(C(=O)O)oc2c(Cl)c1Cl
54 | 82 to 83 °C | CCOCCOc1ccc(COc2cnn(C(C)(C)C)c(=O)c2Cl)cc1
55 | 114 to 115 °C | CC(C)c1nn(-c2ccc(C(F)(F)F)cn2)cc1COc1cccc(CC(=O)O)c1
56 | 242 to 244 °C | O=C1Cc2c(cccc2C(=O)O)Sc2ccc(F)cc21
57 | 227 °C | Cn1ccnc1-c1ccccc1Nc1nc(Nc2ccc3c(c2)C(C)(C)CCC(=O)N3)ncc1Cl
58 | 136 to 137 °C | CC1(C)CCC(=O)N(C2c3cc4nonc4cc3OC(C)(C)C2O)C1 (stereo unspecified)
59 | 274 °C | Nn1cc(C(=O)O)c(=O)c2cc(F)c(Cl)cc21
60 | 64 to 66 °C | CCOC(=O)c1c(C)nc2c(ncn2C)c1OCCC(C)C
61 | 175 to 176 °C | COc1c(C)c(C)c(OC)c(CN2C(=O)[C@H]3CCC[C@H]3Nc3ccccc32)c1C (relative stereo)
62 | 133 to 134 °C | O=C(N1CCc2ccc(Cl)c(O)c2CC1)C(F)(F)F
63 | 187 to 189 °C | CCOc1ccc(-c2ccc3c(c2)C=C(C(=O)Nc2ccc(CCl)cc2)CCO3)cc1
64 | 177 to 178 °C | CCc1nc2c(-c3cc4cc(Br)oc4cc3C)ncnc2n1C(C1CC1)C1CC1
65 | 172 to 173 °C | COc1ccc(C(=O)n2c3c(c4cc(C)ccc42)CC(C(=O)O)CC3)cc1 (stereo unspecified)
66 | > 260 °C | COc1cc(NC(=O)Nc2cccc3c2C2CC(OC)CCN2C3=O)nc2ccccc12 (stereo unspecified)
67 | 269 °C | COC(=O)Cn1c(=O)c(=O)[nH]c2ccccc21
68 | 201 to 202 °C | Nc1c(Cl)c(C(=O)O)nc(Cl)c1Br
69 | 161 °C | CCOP(=O)(OCC)C1CCc2cc(C(F)(F)F)cc3[nH]c(=O)c(=O)n1c23 (stereo unspecified)
70 | 175 to 176 °C | O=C(O)COc1cccc2c1CCc1sc(S(=O)(=O)CCC(c3ccccc3)c3ccccc3)nc1-2
71 | 245 to 249 °C | CNC1CN(c2cc3c(cc2F)c(=O)c(C(=O)O)cn3C2CC2)C1
72 | 89 to 90 °C | COCN1C(C)=C(C(=O)OCOC(=O)C(C)(C)C)C(c2ccccc2)C(C(=O)OCOC(=O)C(C)(C)C)=C1C
73 | 120 °C | N#CCc1ccc(Cl)cc1C(=O)O
74 | 147 to 148 °C | COC1=C(OC)C(=O)C(c2cc(C(C)(C)C)c(O)c(C(C)(C)C)c2)=C(C)C1=O
75 | 131 to 132 °C | CCOC(=O)C1=C(NC(=O)Nc2cc(C(=O)OC(C)C)c(Br)cc2Cl)CCC1
76 | 63 to 65 °C | CC(C)(C)OC(=O)N1CCC=C(Cc2cn(S(=O)(=O)c3ccccc3)c3ccc(F)cc23)C1

Row | melting point | SMILES
77 | 161 to 163 °C | O=C(C=Cc1ccc2ccccc2c1)NCCCCCC(=O)NO
78 | 170 to 172 °C | COc1ccc(C(N)=Nc2ccc(C(=O)O)cc2)cc1C(C)(C)C
79 | < 30 °C | CCCCOCC(O)COc1cc(C)c(OCC(O)COCCCC)cc1C (stereo unspecified)
80 | 157 to 159 °C | CC(Oc1ccc(Oc2ccc3ccc(Br)cc3n2)cc1)C(=O)NCC(=O)O (stereo unspecified)
81 | 235 to 238 °C | Cc1ccccc1C(=O)Nc1ccc(C(=O)O)cn1
82 | 171 to 172 °C | CCc1nn(CC)c(C(N)=O)c1Cc1ccc2oc(-c3ccccc3C(=O)O)c(Br)c2c1
83 | 270 °C | CC(=O)Nc1ccc(Nc2c(CC3CC4C=CC3C4)cc(C(=O)O)cc2S(=O)(=O)NC(C)=O)cc1 (stereo unspecified)
84 | 87 to 88 °C | CCOC(=O)c1cnc2ccc(Cl)cc2c1Cl
85 | 240 to 244 °C | CCCn1c(C(=O)OC)cc(=O)c2oc3ccc(Cl)cc3c(=O)c21
86 | 75 to 78 °C | CCC(Oc1cc(N)c(Cl)cc1C(=O)NCCN(CC)CC)C(C)=O (stereo unspecified)
87 | 98 to 100 °C | CCNC(=O)c1c(Cl)cccc1[Si](C)(C)C(C)C
88 | 118 to 120 °C | CCOC(=O)c1ccc(C(=O)CCc2ccc(S(C)(=O)=O)cc2)cc1
89 | 191 to 192 °C | COc1cc(O)c2c(=O)c(OC)c(-c3ccc(O)cc3OC)oc2c1
90 | 135 to 137 °C | COc1cc2nc(N3CCc4ccc([N+](=O)[O-])cc4C3)nc(N)c2cc1OC
91 | 57 to 73 °C | CON1C(=O)CC2(CCN(C(=O)C3=CN(Cc4ccccc4)C=CC3)CC2)C1=O
92 | 118 to 120 °C | Cc1c(N2CCC3(CC3N)C2)c(F)c(N)c2c(=O)c(C(=O)O)cn([C@@H]3C[C@@H]3F)c12 (stereo partly specified)
93 | 200 to 205 °C | COC(=O)c1cc(O)cnc1C1=NC(=O)C(C)(C(C)C)N1 (stereo unspecified)
94 | 293 to 295 °C | CC(=O)Nc1nc(NC(C)=O)c2[nH]cnc2n1
95 | 231 to 234 °C | O=C(C=Cc1cc(O)c(O)c([N+](=O)[O-])c1)c1ccccc1O
96 | 166 to 167 °C | CCCCN(CC(O)C(Cc1ccccc1)NC(=O)C(CC(N)=O)NC(=O)NCc1ccccc1)C(=O)NC(C)(C)C (stereo unspecified)
97 | 134 to 135 °C | O=C(CCCCCl)c1ccc2c(c1)Cc1cc(C(=O)CCCCCl)ccc1O2
98 | 204 °C | CC1CCCC(C)N1S(=O)(=O)N[C@@H](Cc1ccc(Nc2nccc3cnccc23)cc1)C(=O)O (stereo partly specified)
99 | > 250 °C | CC(=O)Nc1ccc(/C=C/C(=O)N2CC(CCl)c3c2cc(N)c2ccccc32)cc1 (stereo unspecified)
100 | 120 to 122 °C | COc1cc(-c2ncc(Cl)cc2F)c(F)cc1Cl
101 | 78.5 to 82 °C | CNC(Cc1ccccc1NC(=O)C(C)(C)C)c1cccs1 (stereo unspecified)
